US20070128217A1 (priority 2003, published 2007)

Legend:
[1] = tested on: antibodies in sera from SARS patients (sera 1a, 1b, 2, 6, 37, 62, London, SARS-yellow, SARS-green); assay type: binding, human; set-up: Binding of serum 6 to linear peptides of protein X1 of SARS-CoV Urbani / Binding of serum 37 to linear peptides of protein X1 of SARS-CoV Urbani / Binding of serum 6 to looped/cyclic peptide (PEPSCAN-ELISA) / Binding of serum 37 to looped/cyclic peptide (PEPSCAN-ELISA) / Binding of serum 37 to looped/cyclic peptides of protein X1 of SARS-CoV Urbani / Binding of serum 6 to linear peptides of protein X2 / Binding of serum 37 to linear peptides of protein X2 / Binding of serum 37 to looped/cyclic peptides of protein X2 of SARS-CoV Urbani / Binding of serum 6 to linear peptides of protein M of SARS-CoV Urbani / Binding of serum 37 to linear peptides of protein M of SARS-CoV Urbani / Binding of serum 6 to looped/cyclic peptides of protein M of SARS-CoV Urbani / Binding of serum 37 to looped/cyclic peptides of protein M of SARS-CoV Urbani / Binding of serum 6 to linear peptides of protein X3 of SARS-CoV Urbani / Binding of serum 37 to linear peptides of protein X3 of SARS-CoV Urbani / Binding of serum 37 to looped/cyclic peptides of protein X3 of SARS-CoV Urbani / Binding of serum 6 to linear peptides of protein X4 of SARS-CoV Urbani / Binding of serum 37 to linear peptides of protein X4 of SARS-CoV Urbani / Binding of serum 37 to looped/cyclic peptides of protein X4 of SARS-CoV Urbani / Binding of serum 6 to linear peptides of protein X5 of SARS-CoV Urbani / Binding of serum 37 to linear peptides of protein X5 of SARS-CoV Urbani / Binding of serum 37 to looped/cyclic peptides of protein X5 of SARS-CoV Urbani / Binding of serum 6 to linear peptides of protein N of SARS-CoV Urbani / Binding of serum 37 to linear peptides of protein N of SARS-CoV Urbani / Binding of serum 6 to linear peptide (PEPSCAN-ELISA) / Binding of serum 1a to looped/cyclic peptides of protein N of SARS-CoV Urbani / Binding of serum 1b to looped/cyclic peptides of protein N of SARS-CoV Urbani / Binding of serum 2 to looped/cyclic peptides of protein N of SARS-CoV Urbani / Binding of serum 6 to looped/cyclic peptides of protein N of SARS-CoV Urbani / Binding of serum 37 to looped/cyclic peptides of protein N of SARS-CoV Urbani / Binding of serum 62 to looped/cyclic peptides of protein N of SARS-CoV Urbani / Binding of serum London to looped/cyclic peptides of protein N of SARS-CoV Urbani / Binding of serum SARS-green to looped/cyclic peptides of protein N of SARS-CoV Urbani: unit not given here
[2] = tested on: control sera (pooled serum of ten healthy LUMC hospital workers; commercial negative donor pooled serum from the Dutch bloodbank); assay type: binding, human; set-up: Binding of Control serum LUMC to linear peptides / Binding of Control serum Blood-bank to linear peptides / Binding of Control serum LUMC to looped peptides / Binding of Control Serum Blood-Bank to Looped peptides / Binding of Control serum LUMC to linear peptides of the protein M of SARS-CoV Urbani / Binding of Control serum Blood-bank to linear peptides of the protein M of SARS-CoV Urbani / Binding of Control serum LUMC to looped peptides of the protein M of SARS-CoV Urbani / Binding of Control Serum Blood-Bank to Looped peptides of the protein M of SARS-CoV Urbani: unit not given here
[3] = tested on: rabbit serum obtained by immunizing a rabbit with the SARS-CoV strain Frankfurt 1; assay type: binding; set-up: Binding of a rabbit serum to linear peptides / Binding of a rabbit serum to looped peptides / Rabbit serum linear peptides / Rabbit serum looped peptides / Binding of a rabbit serum to linear peptides of protein N of SARS-CoV Urbani (Rabbit serum linear peptides) / Binding of a rabbit serum to looped/cyclic peptides of protein N of SARS-CoV Urbani (Rabbit serum looped peptides): unit not given here

Sequence: TVATSRTLSYYKLGA
- Binding of serum 1a to linear peptides of protein M of SARS-CoV Urbani [1]: 0.7
- Binding of serum 1a to looped/cyclic peptides of protein M of SARS-CoV Urbani [1]: 0.8
- Binding of serum 1b to linear peptides of protein M of SARS-CoV Urbani [1]: 0.6
- Binding of serum 1b to looped/cyclic peptides of protein M of SARS-CoV Urbani [1]: 0.4
- Binding of serum 2 to linear peptides of protein M of SARS-CoV Urbani [1]: 0.7
- Binding of serum 2 to looped/cyclic peptides of protein M of SARS-CoV Urbani [1]: 0.6
- Binding of serum 6 to linear peptides of protein M of SARS-CoV Urbani [1]: 0.6
- Binding of serum 6 to looped/cyclic peptides of protein M of SARS-CoV Urbani [1]: 1.1
- Binding of serum 37 to linear peptides of protein M of SARS-CoV Urbani [1]: 0.8
- Binding of serum 37 to looped/cyclic peptides of protein M of SARS-CoV Urbani [1]: 0.5
- Binding of serum 62 to linear peptides of protein M of SARS-CoV Urbani [1]: 0.8
- Binding of serum 62 to looped/cyclic peptides of protein M of SARS-CoV Urbani [1]: 0.5
- Binding of serum London to linear peptides of protein M of SARS-CoV Urbani [1]: 0.4
- Binding of serum London to looped/cyclic peptides of protein M of SARS-CoV Urbani [1]: 0.3
- Binding of serum SARS-green to linear peptides of protein M of SARS-CoV Urbani [1]: 0.3
- Binding of serum SARS-green to looped/cyclic peptides of protein M of SARS-CoV Urbani [1]: 0.4
- Binding of serum SARS-yellow to linear peptides of protein M of SARS-CoV Urbani [1]: 0.1
- Binding of serum SARS-yellow to looped/cyclic peptides of protein M of SARS-CoV Urbani [1]: 0.5
- Binding of Control Serum Blood-Bank to Looped peptides of the protein M of SARS-CoV Urbani [2]: 0.7
- Binding of Control serum Blood-bank to linear peptides of the protein M of SARS-CoV Urbani [2]: 0.8
- Binding of Control serum LUMC to linear peptides of the protein M of SARS-CoV Urbani [2]: 0.6
- Binding of Control serum LUMC to looped peptides of the protein M of SARS-CoV Urbani [2]: 0.7
- Rabbit serum linear peptides [3]: 0.8
- Rabbit serum looped peptides [3]: 0.2

Sequence: TTDTGIENATFFIFN
- Binding of serum 1a to linear peptides of protein X1 of SARS-CoV Urbani [1]: 0.8
- Binding of serum 1a to looped/cyclic peptides of protein X1 of SARS-CoV Urbani [1]: 0.6
- Binding of serum 1b to linear peptides of protein X1 of SARS-CoV Urbani [1]: 0.5
- Binding of serum 1b to looped/cyclic peptides of protein X1 of SARS-CoV Urbani [1]: 0.6
- Binding of serum 2 to linear peptides of protein X1 of SARS-CoV Urbani [1]: 0.6
- Binding of serum 2 to looped/cyclic peptides of protein X1 of SARS-CoV Urbani [1]: 0.7
- Binding of serum 6 to linear peptides of protein X1 of SARS-CoV Urbani [1]: 0.5
- Binding of serum 6 to looped/cyclic peptides of protein X1 of SARS-CoV Urbani [1]: 0.6
- Binding of serum 37 to linear peptides of protein X1 of SARS-CoV Urbani [1]: 0.6
- Binding of serum 37 to looped/cyclic peptides of protein X1 of SARS-CoV Urbani [1]: 1.0
- Binding of serum 62 to linear peptides of protein X1 of SARS-CoV Urbani [1]: 0.5
- Binding of serum 62 to looped/cyclic peptides of protein X1 of SARS-CoV Urbani [1]: 0.9
- Binding of serum London to linear peptides of protein X1 of SARS-CoV Urbani [1]: 0.3
- Binding of serum London to looped/cyclic peptides of protein X1 of SARS-CoV Urbani [1]: 0.3
- Binding of serum SARS-green to linear peptides of protein X1 of SARS-CoV Urbani [1]: 0.4
- Binding of serum SARS-green to looped/cyclic peptides of protein X1 of SARS-CoV Urbani [1]: 0.6
- Binding of serum SARS-yellow to linear peptides of protein X1 of SARS-CoV Urbani [1]: 0.5
- Binding of serum SARS-yellow to looped/cyclic peptides of protein X1 of SARS-CoV Urbani [1]: 0.5
- Binding of Control Serum Blood-Bank to Looped peptides [2]: 0.8
- Binding of Control serum Blood-bank to linear peptides [2]: 0.6
- Binding of Control serum LUMC to linear peptides [2]: 1.0
- Binding of Control serum LUMC to looped peptides [2]: 0.8
- Binding of a rabbit serum to linear peptides [3]: 0.1
- Binding of a rabbit serum to looped peptides [3]: 0.5

Sequence: QITTDTGIENATFFI
- Binding of serum 1a to linear peptides of protein X1 of SARS-CoV Urbani [1]: 0.7
- Binding of serum 1a to looped/cyclic peptides of protein X1 of SARS-CoV Urbani [1]: 0.7
- Binding of serum 1b to linear peptides of protein X1 of SARS-CoV Urbani [1]: 0.6
- Binding of serum 1b to looped/cyclic peptides of protein X1 of SARS-CoV Urbani [1]: 0.7
- Binding of serum 2 to linear peptides of protein X1 of SARS-CoV Urbani [1]: 0.4
- Binding of serum 2 to looped/cyclic peptides of protein X1 of SARS-CoV Urbani [1]: 0.6
- Binding of serum 6 to linear peptides of protein X1 of SARS-CoV Urbani [1]: 0.4
- Binding of serum 6 to looped/cyclic peptides of protein X1 of SARS-CoV Urbani [1]: 0.5
- Binding of serum 37 to linear peptides of protein X1 of SARS-CoV Urbani [1]: 0.6
- Binding of serum 37 to looped/cyclic peptides of protein X1 of SARS-CoV Urbani [1]: 1.0
- Binding of serum 62 to linear peptides of protein X1 of SARS-CoV Urbani [1]: 0.4
- Binding of serum 62 to looped/cyclic peptides of protein X1 of SARS-CoV Urbani [1]: 0.9
- Binding of serum London to linear peptides of protein X1 of SARS-CoV Urbani [1]: 0.3
- Binding of serum London to looped/cyclic peptides of protein X1 of SARS-CoV Urbani [1]: 0.3
- Binding of serum SARS-green to linear peptides of protein X1 of SARS-CoV Urbani [1]: 0.3
- Binding of serum SARS-green to looped/cyclic peptides of protein X1 of SARS-CoV Urbani [1]: 0.5
- Binding of serum SARS-yellow to linear peptides of protein X1 of SARS-CoV Urbani [1]: 0.3
- Binding of serum SARS-yellow to looped/cyclic peptides of protein X1 of SARS-CoV Urbani [1]: 0.5
- Binding of Control Serum Blood-Bank to Looped peptides [2]: 0.5
- Binding of Control serum Blood-bank to linear peptides [2]: 0.5
- Binding of Control serum LUMC to linear peptides [2]: 0.6
- Binding of Control serum LUMC to looped peptides [2]: 0.8
- Binding of a rabbit serum to linear peptides [3]: 0.1
- Binding of a rabbit serum to looped peptides [3]: 1.5
